Laboratory results published in ChEMBL document CHEMBL1127976, “Synthesis and anti-HCMV activity of 9-[[(ethoxyhydroxyphosphinyl)methoxy]methoxy]guanine, an isostere of PMEG monoethyl ester” (Bioorg Med Chem Lett, 1994).
≈ marks a conversion by molar mass, not a printed value.

Columns and labels:
HEL 299 = assay: Compound was tested for its cytotoxicity against human embryonic lung fibroblast cells (HEL 299) by MTT dye reduction assay; assay type: functional
[1] = Therapeutic index measured as ratio of […]; details: human; read-out: Therapeutic index
Human betaherpesvirus 5 [2] = assay: Concentration of compound required to inhibit 50% of HCMV strain AD-169 induced cytopathic effect; assay type: functional, organism-based
Human betaherpesvirus 5 [3] = assay: Concentration of compound required to inhibit 50% of HCMV strain Davis induced cytopathic effect; assay type: functional, organism-based
[4] = Therapeutic index measured as ratio of EC50 for Davis/CC50 for HEL 299; details: human; read-out: Therapeutic index

## Nc1nc2c(ncn2COC(CO)CO)c(=O)[nH]1 [GANCICLOVIR]
HEL 299
  CC50: > 400 µg/mL
[1]
  selectivity ratio: > 200
Human betaherpesvirus 5 [2]
  EC50: 1.9 µg/mL (≈ 7.44 µM)
Human betaherpesvirus 5 [3]
  EC50: 0.8 µg/mL (≈ 3.13 µM)
[4]
  selectivity ratio: > 500

## CCOP(=O)(O)COCOn1cnc2c(O)nc(N)nc21
HEL 299
  CC50: > 400 µg/mL
[1]
  selectivity ratio: > 200
Human betaherpesvirus 5 [2]
  EC50: 1.8 µg/mL (≈ 5.64 µM)
Human betaherpesvirus 5 [3]
  EC50: 0.6 µg/mL (≈ 1.88 µM)
[4]
  selectivity ratio: > 700
